From patent publication US5622839A (ZymoGenetics, Inc., priority 1995, dated 1997)

Tests used:
bone resorption = conditions: compared with human forms of calcitonin; background; cited from earlier work
[1] = biological target: T1, human calcitonin receptor (Homo sapiens, UniProt P30988); assay: Inositol triphosphate assay in BHK 570 cells expressing pHollex; format: cell-based
T1 construct: Hollex encoded a protein of 474 amino acids; expressed in transfected cells; host or cells: BHK 570 / BHK/KZ10-20-48 (baby hamster kidney) stably transfected with pHollex
T1 sequence (P30988 25-474): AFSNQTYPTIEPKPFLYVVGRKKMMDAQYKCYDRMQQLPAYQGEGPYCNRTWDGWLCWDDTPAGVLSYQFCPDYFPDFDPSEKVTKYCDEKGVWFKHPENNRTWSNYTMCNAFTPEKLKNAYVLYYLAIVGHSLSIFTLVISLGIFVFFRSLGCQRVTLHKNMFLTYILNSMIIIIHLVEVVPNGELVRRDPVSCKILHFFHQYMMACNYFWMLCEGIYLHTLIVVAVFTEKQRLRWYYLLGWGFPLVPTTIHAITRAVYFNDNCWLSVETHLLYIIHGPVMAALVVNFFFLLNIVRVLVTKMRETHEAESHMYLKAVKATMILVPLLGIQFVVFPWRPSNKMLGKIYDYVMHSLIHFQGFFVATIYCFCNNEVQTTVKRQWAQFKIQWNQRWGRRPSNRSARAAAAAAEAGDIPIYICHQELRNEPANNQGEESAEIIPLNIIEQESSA
Procedure: BHK 570 cells expressing the calcitonin receptor from pHollex or mock-transfected BHK 570 cells were plated into 24-well tissue culture dishes at about 200,000 cells per well. After 24 hours, the cells in each well were labeled by incubation in 0.5 ml of Dulbecco's Modified Eagles Medium (DMEM, JRH Biosciences, Lenexa, Kans.) containing 10% fetal calf serum and 4.0 μCi/ml of myo-(2-^3 H) inositol (specific activity=20 Ci/mmol; Amersham). At the end of a 24 hour incubation, the cells were washed with 1 ml prewarmed DMEM that had been buffered with 20 mM Hepes, pH 7.0 (Sigma Chemical Co.) containing 10 mM LiCl. The wash medium was removed by aspiration and replaced with 900 μl of fresh buffered medium. The cells were incubated for five to fifteen minutes at 37° C. After incubation, appropriate concentration of each agonist or antagonist was added to triplicate wells, and the cells were incubated for 30 minutes at 37° C.
The reaction was terminated by placing the cells on ice. Following aspiration of the media, the cells were then lysed by the addition of 1 ml of cold DMEM and 1 ml of ice-cold 10% perchloric acid. After ten minutes the cell lysates were transferred to tubes containing 500 μl of 10 mM EDTA, pH 7.0. […] Ten milliliters of OPTIFLUOR (Packard Instrument Co., Menden, Conn.) were added to each sample, and the samples were counted. […]

[2] = biological target: T1, human calcitonin receptor; assay: Calcitonin competition binding assay with cloned human calcitonin receptor (Hollex1, Hollex2); conditions: for Results (bound 125I calcitonin): 125I calcitonin […] 10^-2 nM
Procedure: (§1) Clones Hollex1 and Hollex2 were tested for receptor-mediated ability to bind calcitonin using a competition assay. T47D cells were used as a positive control and BHK cells transfected with Zem1698 were used as a negative control.
(§2) The cells were rinsed in binding medium (500 ml RPMI 1640 (Sigma, St. Louis, Mo.), 1 mg/ml bacitracin (Sigma), and 1 mg/ml BSA (Boehringer Mannheim)) to remove the serum. […] The cells were incubated for 1.5 hours at room temperature, and then rinsed 3 times with PBS to remove unincorporated radioactivity. Five hundred microliters of 0.25N NaOH was added to each well to solubilize the cells. The samples were collected from each well and CPMs were counted on a gamma counter.

T47D cells = biological target: T2, T47D cells (Homo sapiens, UniProt P30988); assay: Calcitonin competition binding assay with T47D cells (positive control); conditions: T47D (pos. control)
T2 construct: T47D cells were used as a positive control; endogenous in cells; host or cells: T47D human breast carcinoma cells
T2 sequence (P30988 25-474): T1 sequence (P30988 25-474)
Procedure: as §1, §2

[3] = biological target: T1, human calcitonin receptor; assay: [Ca2+]i response of BHK cells expressing cloned calcitonin receptor to calcitonin and extracellular calcium (fura-2); format: cell-based; conditions: about 700,000 calcitonin receptors/cell
Procedure: BHK cells expressing the cloned calcitonin receptor were assayed to determine their response to extracellular calcium. Cells were washed three times with a buffer (140 mM NaCl, 5 mM KCl, 0.5 mM MgCl2, 0.5 mM CaCl2 (concentration varied in some experiments), 10 mM glucose, 10 mM HEPES, pH 7.4) made using high purity salts (Aldrich, Milwaukee, Wis.) and sterile water (Baxter, McGaw Park, Ill.). Cells were loaded with fura-2 AM (Molecular Probes Inc.) (10 μg/ml) for 30 minutes essentially as described above, then washed an additional three times. Slides were mounted at room temperature on an inverted microscope (EPIPHOT, Nikon), and a field of cells (typically 20-30 cells) was located using a 40× Nikon fluor objective. The ratio of fura-2 emission at excitation wavelengths of 340 and 380 nm was recorded every 5 seconds. Individual cells were analyzed on a computer workstation (Sun Microsystems) using a software system designed for ratio imaging (Inovision). The concentration of calcium chloride in buffers was determined by comparison to calcium standards on a calcium analyzer (Nova Biomedical Corp. Waltham, Mass.). All experiments were reproduced three to eight times. Fura-2 ratio 340 nm to 380 nm values (R) were converted to [Ca^2+ ]i concentrations after calibration of the instrument using the formula: calcium (nm)=2240[R-0.3)/(20-R)]. Basal [Ca^2+ ]i concentrations were typically 80-150 nm. The peak fura-2 ratios 340/380 of individual cells exposed to 20 nm salmon calcitonin followed by 25 mM calcium chloride were averaged for some experiments and converted to [Ca^2+ ]i concentrations. Standard error was calculated at a 99% level using a Z score of 2.58 (n>30).

[4] = biological target: T1, human calcitonin receptor; assay: cAMP response by radioimmunoassay (scintillation proximity assay) in Hollex1 and Hollex2; format: cell-based; conditions: 10 min; for EC50: read-out: ED50 (cAMP)
Procedure: The cAMP response of the transfectant clones Hollex1 and Hollex2 to calcitonin and forskolin was also assayed by radioimmunoassay using the cAMP [^125 I] scintillation proximity assay system (Amersham) using the manufacturer's directions. Briefly, either 1×10^5 cells per well or 3×10^5 cells per well were plated into the wells of a 24-well culture dish and grown for 2 days (1×10^5 cells per well) or overnight (3×10^5 cells per well) in selection medium. Calcitonin and forskolin were prepared in DMEM, 10% fetal calf serum, 10 μM IBMX at 0.0001-1000 nM and 25 μM, respectively.
The growth medium was replaced with 200 μl/well of agonist (either calcitonin or forskolin). The cells were incubated with the agonists for 10 minutes at 37° C. in 5% CO2. Following incubation, 800 μl of boiling water was added to each well. After 15 minutes the supernatants were collected and diluted 1:5 or 1:40 in acetate buffer (cAMP [^125 I] Scintillation Proximity Assay System (Amersham)). Samples were acetylated using triethylamine and acetic anhydride according to the protocol provided by the manufacturer.
A 100 μl aliquot of each acetylated sample was combined with 75 μl of ^125 I-cAMP, 75 μl anti-succinyl cAMP antisera and 75 μl of donkey anti-rabbit IgG coupled SPA beads (all assay solutions provided in the cAMP [^125 I] Scintillation Proximity Assay System (Amersham)) in a well of an Dynatech MICROLITE 2 plate. The trays were sealed and incubated overnight with continuous shaking on a rotary platform shaker at 200 rpm. The samples were counted in a Packard Top Count Microplate Scintillation Counter (Packard Instrument Co., Meriden, Conn.). A standard curve of 2-128 fmol acetylated cAMP was also run. Total ^125 I-cAMP bound and nonspecific binding were also determined.

Substance: salmon calcitonin
- effectiveness in arresting bone resorption (bone resorption): considerably more effective
- EC50 ([1]; Hollex1, 30 min at 37° C., read-out: ED50 (inositol phosphate)): 9500 pM
- inositol phosphate response ([1]; Hollex2): no response
- baseline control ([2]; 200 nM unlabeled salmon calcitonin): 27 cpm
- Kd ([2]; Hollex1): 500 ± 200 pM
- Kd ([2]; Hollex2): 300 ± 10 pM
- Results (bound 125I calcitonin) ([2]; unlabeled salmon calcitonin 0.003 nM): 10430 cpm
- Results (bound 125I calcitonin) ([2]; unlabeled salmon calcitonin 0.01 nM): 10278 cpm
- Results (bound 125I calcitonin) ([2]; unlabeled salmon calcitonin 0.03 nM): 10262 cpm
- Results (bound 125I calcitonin) ([2]; unlabeled salmon calcitonin 0.1 nM): 9711 cpm
- Results (bound 125I calcitonin) ([2]; unlabeled salmon calcitonin 0.3 nM): 8421 cpm
- Results (bound 125I calcitonin) ([2]; unlabeled salmon calcitonin 1 nM): 4132 cpm
- Results (bound 125I calcitonin) ([2]; unlabeled salmon calcitonin 3 nM): 1639 cpm
- Results (bound 125I calcitonin) ([2]; unlabeled salmon calcitonin 10 nM): 558 cpm
- Results (bound 125I calcitonin) ([2]; unlabeled salmon calcitonin 30 nM): 458 cpm
- Results (bound 125I calcitonin) ([2]; unlabeled salmon calcitonin 50 nM): 147 cpm
- Kd (T47D cells): 600 ± 500 pM
- concentration giving maximal transient [Ca2+]i increases [3]: 10-20 nm
- EC50 ([4]; Hollex1): 70 pM
- induction of cAMP ([4]; Hollex1, saturating concentrations (10-100 nM)): 12 fold
- EC50 ([4]; Hollex2): 40 pM
- induction of cAMP levels ([4]; Hollex2, saturating concentrations (10-100 nM)): 5 fold
